# Source: patent US20260262643A1, “HERBICIDAL BENZOXAZINES” (FMC CORPORATION, priority 2022, published 2026)
# Experiments:
# [1] = test system: ducksalad; experiment: Test D flooded paddy test; format: in vivo, Heteranthera limosa; settings: 250 g ai/ha, applied to paddy water, visual rating after 13 to 14 days, scale 0 to 100 (0 no effect, 100 complete control)
# Outline: (§1)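 Rating scale 0–100 (0 no effect, 100 complete control), visual, versus controls. Readout at 13–14 days after in-water application to 2-leaf plants in pots flooded 3 cm deep.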
# [2] = test system: corn; experiment: Test C postemergence; format: in vivo, Zea mays; settings: 10 days, 0 to 100 scale (0 no effect, 100 complete control)
# Outline: (§2)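 Visual injury score, 0–100 (100 = complete control), taken 10 days after treatment relative to untreated controls. Pre: directed spray onto soil over sown seeds. Post: foliar spray at one- to two-leaf stage, 2–10 cm. Solvent/surfactant formulation; loam–sand soil; greenhouse.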
# [3] = test system: ryegrass, Italian; experiment: Test C postemergence; format: in vivo, Lolium multiflorum; settings: 10 days, 0 to 100 scale (0 no effect, 100 complete control)
# Outline: as §2
# [4] = test system: blackgrass; experiment: Test C preemergence; format: in vivo, Alopecurus myosuroides
# Outline: as §2
# [5] = test system: corn; experiment: Test C preemergence; format: in vivo, Zea mays
# Outline: as §2
# [6] = test system: rice; experiment: Test D flooded paddy test; format: in vivo, Oryza sativa; settings: 250 g ai/ha, applied to paddy water, visual rating after 13 to 14 days, scale 0 to 100 (0 no effect, 100 complete control)
# Outline: as §1
# [7] = test system: green foxtail; experiment: Test C postemergence; format: in vivo, Setaria viridis; settings: 10 days, 0 to 100 scale (0 no effect, 100 complete control)
# Outline: as §2
# [8] = test system: oat, wild; experiment: Test C postemergence; format: in vivo, Avena fatua; settings: 10 days, 0 to 100 scale (0 no effect, 100 complete control)
# Outline: as §2
# [9] = test system: barnyardgrass; experiment: Test D flooded paddy test; format: in vivo, Echinochloa crus-galli; settings: 250 g ai/ha, applied to paddy water, visual rating after 13 to 14 days, scale 0 to 100 (0 no effect, 100 complete control)
# Outline: as §1
# [10] = test system: blackgrass; experiment: Test C postemergence; format: in vivo, Alopecurus myosuroides; settings: 10 days, 0 to 100 scale (0 no effect, 100 complete control)
# Outline: as §2
# [11] = test system: ragweed; experiment: Test C preemergence; format: in vivo, Ambrosia artemisiifolia
# Outline: as §2
# [12] = test system: wheat; experiment: Test C preemergence; format: in vivo, Triticum aestivum
# Outline: as §2
# [13] = test system: ragweed; experiment: Test C postemergence; format: in vivo, Ambrosia artemisiifolia; settings: 10 days, 0 to 100 scale (0 no effect, 100 complete control)
# Outline: as §2
# [14] = test system: pigweed, palmer; experiment: Test C preemergence; format: in vivo, Amaranthus palmeri
# Outline: as §2
# [15] = test system: kochia; experiment: Test C preemergence; format: in vivo, Bassia scoparia
# Outline: as §2
# [16] = test system: galium; experiment: Test C postemergence; format: in vivo, Galium aparine; settings: 10 days, 0 to 100 scale (0 no effect, 100 complete control)
# Outline: as §2
# [17] = test system: pigweed, palmer; experiment: Test C postemergence; format: in vivo, Amaranthus palmeri; settings: 10 days, 0 to 100 scale (0 no effect, 100 complete control)
# Outline: as §2
# [18] = test system: barnyardgrass; experiment: Test C preemergence; format: in vivo, Echinochloa crusgalli
# Outline: as §2
# [19] = test system: horseweed; experiment: Test C postemergence; format: in vivo, Erigeron canadensis; settings: 10 days, 0 to 100 scale (0 no effect, 100 complete control)
# Outline: as §2
# [20] = test system: soybean; experiment: Test C postemergence; format: in vivo, Glycine max; settings: 10 days, 0 to 100 scale (0 no effect, 100 complete control)
# Outline: as §2
# [21] = test system: ryegrass, Italian; experiment: Test C preemergence; format: in vivo, Lolium multiflorum
# Outline: as §2
# [22] = test system: green foxtail; experiment: Test C preemergence; format: in vivo, Setaria viridis
# Outline: as §2
# [23] = test system: wheat; experiment: Test C postemergence; format: in vivo, Triticum aestivum; settings: 10 days, 0 to 100 scale (0 no effect, 100 complete control)
# Outline: as §2
# [24] = test system: kochia; experiment: Test C postemergence; format: in vivo, Bassia scoparia; settings: 10 days, 0 to 100 scale (0 no effect, 100 complete control)
# Outline: as §2
# [25] = test system: barnyardgrass; experiment: Test C postemergence; format: in vivo, Echinochloa crusgalli; settings: 10 days, 0 to 100 scale (0 no effect, 100 complete control)
# Outline: as §2
# [26] = test system: sedge, umbrella; experiment: Test D flooded paddy test; format: in vivo, Cyperus difformis; settings: 250 g ai/ha, applied to paddy water, visual rating after 13 to 14 days, scale 0 to 100 (0 no effect, 100 complete control)
# Outline: as §1
# [27] = test system: soybean; experiment: Test C preemergence; format: in vivo, Glycine max
# Outline: as §2
# [28] = 500 g ai/ha, preemergence, 0 to 100 scale (0 no effect, 100 complete control)
# [29] = Preemergence, 125 g ai/ha, 0 to 100 scale, 0 no effect, 100 complete control
structure (smiles),measurement,setting,value
C[C@H]1CN(C(=O)c2cccc(-n3cnc(OS(C)(=O)=O)n3)c2)c2cccc(Cl)c2O1 [Compound 356],"Plant response rating, Ducksalad (Flood)",[1],0
same,"Plant response rating, Corn","[2]; 500 g ai/ha, postemergence",20
same,"Plant response rating, Corn","[2]; Postemergence, 125 g ai/ha",10
same,"Plant response rating, Ryegrass, Italian","[3]; 500 g ai/ha, postemergence",80
same,"Plant response rating, Ryegrass, Italian","[3]; Postemergence, 125 g ai/ha",30
same,Blackgrass plant response rating,[4]; [28],20
same,"Plant response rating, Blackgrass",[4]; [29],0
same,Corn plant response rating,[5]; [28],10
same,"Plant response rating, Corn",[5]; [29],0
same,"Plant response rating, Rice (Flood)",[6],0
same,"Plant response rating, Foxtail, Green","[7]; 500 g ai/ha, postemergence",30
same,"Plant response rating, Foxtail, Green","[7]; Postemergence, 125 g ai/ha",10
same,"Plant response rating, Oat, Wild","[8]; 500 g ai/ha, postemergence",20
same,"Plant response rating, Oat, Wild","[8]; Postemergence, 125 g ai/ha",10
same,"Plant response rating, Barnyardgrass (Flood)",[9],0
same,"Plant response rating, Blackgrass","[10]; 500 g ai/ha, postemergence",50
same,"Plant response rating, Blackgrass","[10]; Postemergence, 125 g ai/ha",0
same,Ragweed plant response rating,[11]; [28],0
same,"Plant response rating, Ragweed",[11]; [29],0
same,Wheat plant response rating,[12]; [28],0
same,"Plant response rating, Wheat",[12]; [29],0
same,"Plant response rating, Ragweed","[13]; 500 g ai/ha, postemergence",30
same,"Plant response rating, Ragweed","[13]; Postemergence, 125 g ai/ha",20
same,"Pigweed, Palmer plant response rating",[14]; [28],100
same,"Plant response rating, Pigweed, Palmer",[14]; [29],40
same,Kochia plant response rating,[15]; [28],90
same,"Plant response rating, Kochia",[15]; [29],0
same,"Plant response rating, Galium","[16]; 500 g ai/ha, postemergence",100
same,"Plant response rating, Galium","[16]; Postemergence, 125 g ai/ha",90
same,"Plant response rating, Pigweed, Palmer","[17]; 500 g ai/ha, postemergence",70
same,"Plant response rating, Pigweed, Palmer","[17]; Postemergence, 125 g ai/ha",40
same,Barnyardgrass plant response rating,[18]; [28],50
same,"Plant response rating, Barnyardgrass",[18]; [29],10
same,"Plant response rating, Horseweed","[19]; 500 g ai/ha, postemergence",40
same,"Plant response rating, Horseweed","[19]; Postemergence, 125 g ai/ha",30
same,"Plant response rating, Soybean","[20]; 500 g ai/ha, postemergence",100
same,"Plant response rating, Soybean","[20]; Postemergence, 125 g ai/ha",100
same,"Ryegrass, Italian plant response rating",[21]; [28],80
same,"Plant response rating, Ryegrass, Italian",[21]; [29],70
same,"Foxtail, Green plant response rating",[22]; [28],90
same,"Plant response rating, Foxtail, Green",[22]; [29],30
same,"Plant response rating, Wheat","[23]; 500 g ai/ha, postemergence",20
same,"Plant response rating, Wheat","[23]; Postemergence, 125 g ai/ha",10
same,"Plant response rating, Kochia","[24]; 500 g ai/ha, postemergence",80
same,"Plant response rating, Kochia","[24]; Postemergence, 125 g ai/ha",50
same,"Plant response rating, Barnyardgrass","[25]; 500 g ai/ha, postemergence",20
same,"Plant response rating, Barnyardgrass","[25]; Postemergence, 125 g ai/ha",10
same,"Plant response rating, Sedge, Umbrella (Flood)",[26],0
same,Soybean plant response rating,[27]; [28],0
same,"Plant response rating, Soybean",[27]; [29],0
